Numbers after ± are expanded uncertainties.
Assay: osmotic coefficient (dimensionless); mn = molality of the nth substance listed, in mol/kg
Conditions: 318.15 K, 101 kPa, Liquid

Compound CCCCn1cc[n+](C)c1.F[B-](F)(F)F [1-butyl-3-methylimidazolium tetrafluoroborate] + O has an osmotic coefficient (vapor pressure osmometry, m1 = 0.0101) of 1.01 ± 0.05, an osmotic coefficient (vapor pressure osmometry, m1 = 0.0355) of 0.992 ± 0.05 and an osmotic coefficient (vapor pressure osmometry, m1 = 0.044) of 0.927 ± 0.05. It also gave an osmotic coefficient (vapor pressure osmometry, m1 = 0.0701) of 0.887 ± 0.05, an osmotic coefficient (vapor pressure osmometry, m1 = 0.0971) of 0.864 ± 0.05 and an osmotic coefficient (vapor pressure osmometry, m1 = 0.152) of 0.808 ± 0.051. It also gave an osmotic coefficient (vapor pressure osmometry, m1 = 0.1977) of 0.793 ± 0.051, an osmotic coefficient (vapor pressure osmometry, m1 = 0.2891) of 0.739 ± 0.051 and an osmotic coefficient (vapor pressure osmometry, m1 = 0.3968) of 0.672 ± 0.051. For the same compound, the osmotic coefficient (vapor pressure osmometry, m1 = 0.4678) was 0.657 ± 0.051, the osmotic coefficient (vapor pressure osmometry, m1 = 0.5632) was 0.611 ± 0.052 and the osmotic coefficient (vapor pressure osmometry, m1 = 0.799) was 0.532 ± 0.053. It also gave an osmotic coefficient (vapor pressure osmometry, m1 = 1.023) of 0.473 ± 0.053, an osmotic coefficient (vapor pressure osmometry, m1 = 1.468) of 0.372 ± 0.055 and an osmotic coefficient (vapor pressure osmometry, m1 = 2.417) of 0.257 ± 0.057.

Work on CCCCn1cc[n+](C)c1.F[B-](F)(F)F [1-butyl-3-methylimidazolium tetrafluoroborate] + CC#N yielded an osmotic coefficient (osmometer, m1 = 0.0093) of 0.906 ± 0.031, an osmotic coefficient (osmometer, m1 = 0.0203) of 0.648 ± 0.029 and an osmotic coefficient (osmometer, m1 = 0.0341) of 0.462 ± 0.029. It also gave an osmotic coefficient (osmometer, m1 = 0.0631) of 0.293 ± 0.032, an osmotic coefficient (osmometer, m1 = 0.0795) of 0.273 ± 0.033 and an osmotic coefficient (osmometer, m1 = 0.1043) of 0.314 ± 0.032. The osmotic coefficient (osmometer, m1 = 0.1163) was 0.344 ± 0.031, the osmotic coefficient (osmometer, m1 = 0.1359) was 0.412 ± 0.029 and the osmotic coefficient (osmometer, m1 = 0.1472) was 0.462 ± 0.028. The osmotic coefficient (osmometer, m1 = 0.1631) was 0.553 ± 0.026, the osmotic coefficient (osmometer, m1 = 0.1791) was 0.646 ± 0.025 and the osmotic coefficient (osmometer, m1 = 0.2091) was 0.872 ± 0.022.

Work on CCCCn1cc[n+](C)c1.[Br-] [1-butyl-3-methylimidazolium bromide] + O yielded an osmotic coefficient (vapor pressure osmometry, m1 = 0.022) of 0.944 ± 0.02, an osmotic coefficient (vapor pressure osmometry, m1 = 0.0461) of 0.926 ± 0.02 and an osmotic coefficient (vapor pressure osmometry, m1 = 0.0726) of 0.894 ± 0.02. For the same compound, the osmotic coefficient (vapor pressure osmometry, m1 = 0.1241) was 0.855 ± 0.021, the osmotic coefficient (vapor pressure osmometry, m1 = 0.2702) was 0.809 ± 0.021 and the osmotic coefficient (vapor pressure osmometry, m1 = 0.3522) was 0.785 ± 0.021. The osmotic coefficient (vapor pressure osmometry, m1 = 0.3994) was 0.777 ± 0.021, the osmotic coefficient (vapor pressure osmometry, m1 = 0.5204) was 0.755 ± 0.022 and the osmotic coefficient (vapor pressure osmometry, m1 = 0.7354) was 0.726 ± 0.022. It also gave an osmotic coefficient (vapor pressure osmometry, m1 = 0.9713) of 0.713 ± 0.022, an osmotic coefficient (vapor pressure osmometry, m1 = 1.272) of 0.701 ± 0.023 and an osmotic coefficient (vapor pressure osmometry, m1 = 2.024) of 0.69 ± 0.023.

For CCCCn1cc[n+](C)c1.F[P-](F)(F)(F)(F)F [1-butyl-3-methylimidazolium hexafluorophosphate] + CC#N, the osmotic coefficient (osmometer, m1 = 0.0116) was 0.76 ± 0.027, the osmotic coefficient (osmometer, m1 = 0.019) was 0.636 ± 0.027 and the osmotic coefficient (osmometer, m1 = 0.0321) was 0.477 ± 0.03. It also gave an osmotic coefficient (osmometer, m1 = 0.0366) of 0.436 ± 0.029, an osmotic coefficient (osmometer, m1 = 0.0544) of 0.323 ± 0.032 and an osmotic coefficient (osmometer, m1 = 0.0691) of 0.278 ± 0.032. The osmotic coefficient (osmometer, m1 = 0.0918) was 0.287 ± 0.032, the osmotic coefficient (osmometer, m1 = 0.1015) was 0.314 ± 0.032 and the osmotic coefficient (osmometer, m1 = 0.1285) was 0.415 ± 0.029. For the same compound, the osmotic coefficient (osmometer, m1 = 0.1496) was 0.515 ± 0.027, the osmotic coefficient (osmometer, m1 = 0.1789) was 0.692 ± 0.024 and the osmotic coefficient (osmometer, m1 = 0.2032) was 0.857 ± 0.022.
